The values below come from US20100068174A1, “COMBINATION WITH BIS (THIOHYDRAZIDE AMIDES) FOR TREATING CANCER” (Synta Pharmaceuticals Corp., priority 2006, published 2010).

The test system of data set [1] is Stage IV metastatic melanoma patients. The settings on record: RECIST, Efficacy Sample.
Protocol: Patients were treated until progression of the disease. […] The tumor assessments were performed at baseline, Cycle 2, and every other Cycle thereafter.
The next data set is described as follows: in vivo. The note with it: female, SW, mouse, iv. How it is done:
Tissue samples were prepared by homogenizing a weighed tissue sample in phosphor-buffered saline (PBS, ×1)+1% DTT (×1)+CH3CN (0.1% HCOOH) (×3)), centrifuged at 10,000 rpm×5 min; 150 μL supernatant+90 μL H2O. 100 μL prepared samples were subjected to HPLC, using 5-95% CH3CN (0.1% HCOOH) as the eluent. The running time was 15 min.

The structures appear in SMILES notation.

For the compound `CC(=O)O[C@H]1C(=O)[C@@]2(C)[C@H]([C@H](OC(=O)c3ccccc3)[C@]3(O)C[C@H](OC(=O)[C@H](O)[C@@H](NC(=O)c4ccccc4)c4ccccc4)C(C)=C1C3(C)C)[C@]1(OC(C)=O)CO[C@@H]1C[C@@H]2O` [Paclitaxel], the “CR + PR (95% CI)” value in data set [1] is 3.7% (0.1%,.
For `CN(NC(=O)CC(=O)NN(C)C(=S)C1CC1)C(=S)C1CC1` [Compound (18)], in “in vivo”, the Kp at 30 min is about 1.64 and the concentration at 30 min was about 51 µM.
